Test system: PANC-1 pERK
Test: Phospho-ERK 1/2 assay
Assay type: cell-based
Conditions: Homo sapiens, PANC-1, 3 h, PANC-1 cells, compound incubation 3 hours, pERK normalised with GAPDH antibody staining
Procedure: Allow PNAC-1 cell growth in a T75 flask in DMEM and 10% 1 fetal calf serum (FCS; Gibco®), using standard tissue culture procedures until ~80% confluency is achieved. Day 1, seed 6000 cells/well in 384 well plate and incubate at 37° C., 5% CO2. Add diluted compound by Echo 550, final DMSO is 0.5%, incubate cells at 37° C., 5% CO2 for 3 hours. Then, remove medium and fix cells with 3.7% formaldehyde in PBS (PFA) by Apricot. Wash with PBS once. Permeabilize cells with cold 100% methanol and repeat wash once with PBS once. Add Li-Cor blocking buffer to each well and incubate 1.5 hours at RT. Remove blocking buffer and add primary antibody mixture (rabbit anti pERK, mouse anti GAPDH). Incubate at 4° C. overnight. Day 2, wash with PBST (Tween-20 in PBS) with total 3 times and then add secondary antibody mixture (goat anti rabbit 800CW (1:800 dilution in the combined solution) and goat anti mouse 680RD (1:800 dilution in the combined solution)), incubate for 60 minutes at RT away from light. Repeat washing with PBST 3 times. After final wash, centrifuge plate up-side-down at 1000 rpm to remove wash solution completely from wells. Before plate scanning, clean the bottom plate surface and the Odyssey© Imager scanning bed (if applicable) with moist, lint-free tissue to avoid any obstructions during scanning. Scan plate with detection in both 700 and 800 nm channels.

Going from C#Cc1c(F)ccc2cccc(-c3nc4c5c(nc(=O)n([C@H](C)CN6[C@@H]7CC[C@H]6COC7)c5c3F)N3C[C@H]5CC[C@H](N5)[C@H]3[C@H](C)O4)c12 [Example 341, (5S,5aS,6S,9R)-13-((R)-1-((1R,5S)-3-oxa-8-azabicyclo[3.2.1]octan-8-yl)propan-2-yl)-2-(8-ethynyl-7-fluoronaphthalen-1-yl)-1-fluoro-5-methyl-5a,6,7,8,9,10-hexahydro-5H-4-oxa-3,10a,11,13,14-pentaaza-6,9-methanonaphtho[1,8-ab]heptalen-12(13H)-one] to C#Cc1c(F)ccc2cccc(-c3nc4c5c(nc(=O)n(C[C@@]6(C)CCN6C)c5c3F)N3C[C@H]5CC[C@H](N5)[C@H]3[C@H](C)O4)c12 [Example 357, (5S,5aS,6S,9R)-13-(((R)-1,2-dimethylazetidin-2-yl)methyl)-2-(8-ethynyl-7-fluoronaphthalen-1-yl)-1-fluoro-5-methyl-5a,6,7,8,9,10-hexahydro-5H-4-oxa-3,10a,11,13,14-pentaaza-6,9-methanonaphtho[1,8-ab]heptalen-12(13H)-one], the IC50 rises from 70 nM to 123 nM (1.8-fold).

Going from CCc1c(F)ccc2cc(O)cc(-c3nc4c5c(nc(=O)n(C(C)[C@H]6CCN6C)c5c3F)N3C[C@H]5CC[C@H](N5)[C@H]3[C@H](C)O4)c12 (single isomer, unassigned) [Example 376a] to CCc1c(F)ccc2cc(O)cc(-c3nc4c5c(nc(=O)n(C[C@H]6CCN6C)c5c3F)N3C[C@H]5CC[C@H](N5)[C@H]3[C@H](C)O4)c12 [Example 369, (8S,8aS,9S,12R)-5-(8-ethyl-7-fluoro-3-hydroxynaphthalen-1-yl)-4-fluoro-8-methyl-3-(((R)-1-methylazetidin-2-yl)methyl)-8a,9,10,11,12,13-hexahydro-8H-7-oxa-1,3,6,13a,14-pentaaza-9,12-methanonaphtho[1,8-ab]heptalen-2(3H)-one], the IC50 rises from 145 nM to 400 nM (2.8-fold).

First: C#Cc1c(F)ccc2cccc(-c3nc4c5c(nc(=O)n(C[C@@]6(C)CCCN6C)c5c3F)N3C[C@H]5CC[C@H](N5)[C@H]3[C@H](C)O4)c12 [Example 367, (8S,8aS,9S,12R)-3-(((R)-1,2-dimethylpyrrolidin-2-yl)methyl)-5-(8-ethynyl-7-fluoronaphthalen-1-yl)-4-fluoro-8-methyl-8a,9,10,11,12,13-hexahydro-8H-7-oxa-1,3,6,13a,14-pentaaza-9,12-methanonaphtho[1,8-ab]heptalen-2(3H)-one]
Second: C#Cc1c(F)ccc2cccc(-c3nc4c5c(nc(=O)n(C[C@@]67CCCN6C[C@H](F)C7)c5c3F)N3C[C@H]5CC[C@H](N5)[C@H]3[C@H](C)O4)c12 [Example 199, (5S,5aS,6S,9R)-2-(8-ethynyl-7-fluoronaphthalen-1-yl)-1-fluoro-13-(((2R,7aS)-2-fluorotetrahydro-1H-pyrrolizin-7a(5H)-yl)methyl)-5-methyl-5a,6,7,8,9,10-hexahydro-5H-4-oxa-3,10a,11,13,14-pentaaza-6,9-methanonaphtho[1,8-ab]heptalen-12(13H)-one]
The IC50 of the first is 6.3-fold higher: 234 nM for the first, 37 nM for the second. The second is the more potent here.

C#Cc1c(F)ccc2cc(O)cc(-c3nc4c5c(nc(=O)n(CC67CCCN6CC(=C)C7)c5c3F)N3C[C@H]5CC[C@H](N5)[C@H]3[C@H](C)O4)c12 (stereo partly drawn) [Example 222] and C=C1CN2CCC[C@@]2(Cn2c(=O)nc3c4c(nc(-c5cc(O)cc6ccc(F)c(Cl)c56)c(F)c42)O[C@@H](C)[C@@H]2[C@@H]4CC[C@H](CN32)N4)C1 [Example 363, (5S,5aS,6S,9R)-2-(8-chloro-7-fluoro-3-hydroxynaphthalen-1-yl)-1-fluoro-5-methyl-13-(((S)-2-methylenetetrahydro-1H-pyrrolizin-7a(5H)-yl)methyl)-5a,6,7,8,9,10-hexahydro-5H-4-oxa-3,10a,11,13,14-pentaaza-6,9-methanonaphtho[1,8-ab]heptalen-12(13H)-one] are within 1.5-fold of each other in IC50: 113 nM for the first, 88 nM for the second.

Going from C#Cc1c(F)ccc2cc(O)cc(-c3nc4c5c(cc(=O)n(C[C@@]67CCCN6CC(=C)C7)c5c3F)N3C[C@H]5CC[C@H](N5)[C@H]3[C@H](C)O4)c12 [Example 330, (5S,5aS,6S,9R)-2-(8-ethynyl-7-fluoro-3-hydroxynaphthalen-1-yl)-1-fluoro-5-methyl-14-(((S)-2-methylenetetrahydro-1H-pyrrolizin-7a(5H)-yl)methyl)-5a,6,7,8,9,10-hexahydro-5H-6,9-epiminoazepino[2′,1′:3,4][1,4] oxazepino[5,6,7-de][1,6]naphthyridin-13(14H)-one] to C=C1CN2CCCC2(Cn2c(=O)nc3c4c(nc(-c5cc(O)cc6ccc(F)c(CC)c56)c(F)c42)O[C@@H](C)[C@@H]2[C@@H]4CC[C@H](CN32)N4)C1 (stereo partly drawn) [Example 228], the IC50 falls from 171 nM to 19 nM (9-fold).

Going from C#Cc1c(F)ccc2cc(O)cc(-c3c(F)c4c5c(cc(=O)n(C[C@@]67CCCN6C[C@H](F)C7)c5c3F)N3C[C@H]5CC[C@H](N5)[C@H]3CO4)c12 [Example 332, (5aS,6S,9R)-2-(8-ethynyl-7-fluoro-3-hydroxynaphthalen-1-yl)-1,3-difluoro-14-(((2R,7aS)-2-fluorotetrahydro-1H-pyrrolizin-7a(5H)-yl)methyl)-5a,6,7,8,9,10-hexahydro-5H-6,9-epiminoazepino[2′,1′:3,4][1,4] oxazepino[5,6,7-de]quinolin-13(14H)-one] to CCc1c(F)ccc2cc(O)cc(-c3nc4c5c(nc(=O)n(C[C@@]67CCCN6C[C@H](F)C7)c5c3F)N3C[C@H]5CC[C@H](N5)[C@H]3CO4)c12 [Example 45, (8aS,9S,12R)-5-(8-ethyl-7-fluoro-3-hydroxynaphthalen-1-yl)-4-fluoro-3-(((2R,7aS)-2-fluorotetrahydro-1H-pyrrolizin-7a(5H)-yl)methyl)-8a,9,10,11,12,13-hexahydro-8H-7-oxa-1,3,6,13a,14-pentaaza-9,12-methanonaphtho[1,8-ab]heptalen-2(3H)-one], the IC50 falls from 778 nM to 23 nM (34-fold). The second is the more potent here.

CCc1c(F)ccc2cc(O)cc(-c3nc4c5c(nc(=O)n(C[C@@]67CCCN6C[C@H](F)C7)c5c3F)N3C[C@H]5CC[C@H](N5)[C@H]3[C@H](C)O4)c12 [Example 227] and C=C1CN2CCC[C@@]2(Cn2c(=O)nc3c4c(nc(-c5cc(O)cc6ccc(F)c(CC)c56)c(F)c42)OC[C@@H]2[C@@H]4CC[C@H](CN32)N4)C1 (single isomer, unassigned) [Example 46a] are within 1.5-fold of each other in IC50: 5.2 nM for the first, 5.9 nM for the second.

First: C=C1CN2CCC[C@@]2(Cn2c(=O)nc3c4c(nc(-c5cc(O)cc6ccc(F)c(CC)c56)c(F)c42)O[C@@H](C)[C@@H]2[C@@H]4CC[C@](C)(CN32)N4)C1 [Example 362, (5S,5aS,6S,9R)-2-(8-ethyl-7-fluoro-3-hydroxynaphthalen-1-yl)-1-fluoro-5,9-dimethyl-13-(((S)-2-methylenetetrahydro-1H-pyrrolizin-7a(5H)-yl)methyl)-5a,6,7,8,9,10-hexahydro-5H-4-oxa-3,10a,11,13,14-pentaaza-6,9-methanonaphtho[1,8-ab]heptalen-12(13H)-one]
Second: C#Cc1c(F)ccc2cc(O)cc(-c3nc4c5c(nc(=O)n(CC67CCCN6CC(=C)C7)c5c3F)N3C[C@H]5CC[C@H](N5)[C@H]3CO4)c12 (stereo partly drawn) [Example 24]
The IC50 of the first is 2.6-fold higher: 221 nM for the first, 85 nM for the second.

First: CCc1c(F)ccc2cc(O)cc(-c3nc4c5c(nc(=O)n(C[C@@]67CCCN6C[C@H](F)C7)c5c3F)N3C[C@@](C)(O)CCC3CO4)c12 (single isomer, unassigned) [Example 350a1]
Second: C#Cc1c(F)ccc2cccc(-c3nc4c5c(nc(=O)n(C[C@]67CCCN6CC(=C)C7)c5c3F)N3C[C@H]5CC[C@H](N5)[C@H]3[C@H](C)O4)c12 (single isomer, unassigned) [Example 200b]
The IC50 of the first is 4.6-fold lower: 151 nM for the first, 697 nM for the second. The first is the more potent here.

Same assay, conditions: Homo sapiens; PANC-1 cells, compound incubation 3 hours, pERK normalised with GAPDH antibody staining

In the case of C#Cc1c(F)ccc2cc(O)cc(-c3nc4c5c(nc(=O)n(C[C@@]67CCCN6C[C@H](F)C7)c5c3F)N3C[C@H]5CC[C@H](N5)[C@H]3CO4)c12 [Example 23, (5aS,6S,9R)-2-(8-ethynyl-7-fluoro-3-hydroxynaphthalen-1-yl)-1-fluoro-13-(((2R,7aS)-2-fluorotetrahydro-1H-pyrrolizin-7a(5H)-yl)methyl)-5a,6,7,8,9,10-hexahydro-5H-4-oxa-3,10a,11,13,14-pentaaza-6,9-methanonaphtho[1,8-ab]heptalen-12(13H)-one], the IC50 is reported as 96 nM.

Same assay, conditions: PANC-1 cells, compound incubation 3 hours, pERK normalised with GAPDH antibody staining

CCc1c(F)ccc2cc(O)cc(-c3nc4c5c(nc(=O)n(CC(C)(CO)N(C)C)c5c3F)N3C[C@H]5CC[C@H](N5)[C@H]3[C@H](C)O4)c12 (single isomer, unassigned) [Example 373b] and C#Cc1c(F)ccc2cccc(-c3nc4c5c(nc(=O)n(CC(C)(CO)N(C)C)c5c3F)N3C[C@H]5CC[C@H](N5)[C@H]3[C@H](C)O4)c12 (single isomer, unassigned) [Example 365b] are within 1.5-fold of each other in IC50: 137 nM for the first, 110 nM for the second.

Going from C#Cc1c(F)ccc2cccc(-c3nc4c5c(nc(=O)n(C(C)[C@H]6CCN6C)c5c3F)N3C[C@H]5CC[C@H](N5)[C@H]3[C@H](C)O4)c12 (single isomer, unassigned) [Example 372a] to CCc1c(F)ccc2cc(O)cc(-c3nc4c5c(nc(=O)n(C(C)[C@H]6CCN6C)c5c3F)N3C[C@H]5CC[C@H](N5)[C@H]3[C@H](C)O4)c12 (single isomer, unassigned) [Example 376b], the IC50 falls from 391 nM to 133 nM (2.9-fold).

For C#Cc1c(F)ccc2cccc(-c3nc4c5c(nc(=O)n(C(C)[C@H]6CCN6C)c5c3F)N3C[C@H]5CC[C@H](N5)[C@H]3[C@H](C)O4)c12 (single isomer, unassigned) [Example 372b], the IC50 was 70 nM.
